Patent US9610258B2, “Methods of stabilizing the extracellular matrix and compositions therefor” (priority 2011, dated 2017)
Where “and” joins values, the source holds several entries; their conditions need not be identical. Identical values can stand only once.

Assays:
[1] = 12-month aging of topical cream, isothiocyanate concentration by HPLC; assay type: physicochemical; conditions: Table 11 cream; for isothiocyanate concentration in cream, 4 months: aged 4 months; for isothiocyanate concentration in cream, 8 months: aged 8 months; for isothiocyanate concentration in cream, 12 months: aged 12 months; for isothiocyanate concentration in cream, Original: time 0
Experimental: To determine the effects of aging of the topical cream formulations on the potency of the included bioactives, a study was performed as described in Table 12. Shown is a 12-month aging of the orthomolecular transdermal formulation as described in Table 11. Bio-encapsulation of the isothiocyanates, such as cyclodextrin R-sulforaphane, is not commonly available, and can suffer instability depending on the cream base used. Since topical formulations are applied to the skin, consideration of noxious volatile sulfur emissions and dermal irritation, especially from broccoli, wasabi, and mustard extracts, limit their amount and source. Table 12 illustrates that stabilization of orthomolecular ingredients such as isothiocyanates can be accomplished in a topical formulation.

mice = conditions: mouse, in vivo; cited from earlier work
[2] = system: oxazolone-induced ear edema in BALB/c mice; experiment: Oxazolone-induced murine ear edema, second formalized study; assay type: in vivo; conditions: for reduction / inhibition of oxazolone-induced ear edema: as stated in running text per treatment group; for Change in Ear Weight, Mean: group mean, 8 mice, acetone vehicle 74.6; for Left Ear weight / Right Ear weight / ΔWt., change in mouse ear weight: individual mice, 24 h after oxazolone challenge; for % Inhibition of change in ear weight: vs acetone vehicle group
Experimental: The present example assesses the anti-inflammatory activity of a topically applied formulation in accordance with one aspect of the present invention in a prophylactic and therapeutic model of ear edema in BALB/c mice. […] Louis, Mo., USA) to 20 mL acetone (Acros Organics, Cat. 42324-0010, lot B4522107, Thermo Fisher Scientific, Princeton, N.J., USA). The mixture was gently heated until a bright yellow color. 52 BALB/c mice (Harlan Sprague-Dawley, Inc., Indianapolis, Ind., USA, male, 6-7 weeks old) were received, individually examined and housed in six cages of eight mice each and one cage containing four mice. No clinical signs of disease or distress were observed. The mice were placed in quarantine with daily inspections. […] The mixture was gently heated until a bright yellow color. […] This equated to 0.336 mg of cream per ear. 0.6 mg betamethasone-21-valerate (Sigma Chem., Cat. […] PZ0008, lot 020M47044) was suspended in […] dH2O (1 mg/mL) for Group 4. […] Twenty-four hours after oxazolone challenge, the mice were euthanized, and the ears were removed and weighed.

[3] = in topical formulations; cited from earlier work
breast cancer = conditions: women living at least one year after breast cancer diagnosis; cited from earlier work
ear edema = conditions: cited from earlier work

## C[S+]([O-])CCCCCCN=C=S (centres unmarked) [6 MITC, 6-(methylsulfinyl)hexyl isothiocyanate]
[1]
  isothiocyanate concentration in cream, 4 months: 0.341 Mg/gm
  isothiocyanate concentration in cream, 8 months: 0.614 Mg/gm
  isothiocyanate concentration in cream, 12 months: 0.571 Mg/gm
  isothiocyanate concentration in cream, Original: 0.123 Mg/gm

## COc1cc(/C=C/C(=O)CC(=O)/C=C/c2ccc(O)c(OC)c2)ccc1O [Curcumin]
mice
  Oral LD50: > 2 g/kg body weight

## C[S@+]([O-])CCCCN=C=S [L-Sulforaphane]
[1]
  isothiocyanate concentration in cream, 4 months: 0.358 Mg/gm
  isothiocyanate concentration in cream, 8 months: 1.105 Mg/gm
  isothiocyanate concentration in cream, 12 months: 1.841 Mg/gm
  isothiocyanate concentration in cream, Original: 0.606 Mg/gm

## Cc1ccc(-c2cc(C(F)(F)F)nn2-c2ccc(S(N)(=O)=O)cc2)cc1 [Oral Celecoxib, celecoxib]
[2]
  reduction / inhibition of oxazolone-induced ear edema: 37%
  Change in Ear Weight, Mean: 46.7 mg
  Left Ear weight: 27.52 mg and 25.00 mg and 22.00 mg and 27.84 mg and 30.30 mg and 26.29 mg and 23.89 mg and 23.84 mg
  Right Ear weight: 79.55 mg and 68.55 mg (2×) and 72.46 mg and 81.00 mg and 75.32 mg and 72.39 mg and 62.48 mg
  ΔWt., change in mouse ear weight: 52.03 mg and 43.55 mg and 46.55 mg and 44.62 mg and 50.70 mg and 49.03 mg and 48.50 mg and 38.64 mg
  % Inhibition of change in ear weight: 37%

## C[S+]([O-])CCCCN=C=S (centres unmarked) [Sulforaphane]
[3]
  time to decline to a zero level: 30 days

## C[S@@+]([O-])C=CCCN=C=S [Sulforaphene, 4-isothiocyanato-(1R)-(methylsulphinyl)-1-(E)-butene]
[1]
  isothiocyanate concentration in cream, 4 months: 1.729 Mg/gm
  isothiocyanate concentration in cream, 8 months: 0.308 Mg/gm
  isothiocyanate concentration in cream, 12 months: 0.233 Mg/gm
  isothiocyanate concentration in cream, Original: 0.551 Mg/gm

## CC(=O)Oc1ccccc1C(=O)O [aspirin]
Breast cancer
  decrease in distant recurrence and breast cancer death: ~50%

## COc1ccc2c(c1)c(CC(=O)O)c(C)n2C(=O)c1ccc(Cl)cc1 [indomethacin]
Ear edema; research grade trans-resveratrol, indomethacin 0.5 mg/ear
  inhibition / reduction of edema reported by studies of individual topical components: 45%

## Oc1ccc(/C=C/c2cc(O)cc(O)c2)cc1 [trans-resveratrol, 3,5,4′-trihydroxy-trans-stilbene]
Ear edema; commercially-purified, at similar concentration to that of the topical formulation
  inhibition of edema: 35%

## betamethasone-21-valerate [Topical Betamethasone]
[2]
  reduction / inhibition of oxazolone-induced ear edema: 69%
  Change in Ear Weight, Mean: 23.7 mg
  Left Ear weight: 22.10 mg and 23.20 mg and 24.56 mg and 20.44 mg and 21.26 mg and 22.60 mg (2×) and 25.74 mg
  Right Ear weight: 48.00 mg and 45.52 mg and 48.66 mg and 47.03 mg and 41.34 mg and 45.70 mg and 49.51 mg and 46.30 mg
  ΔWt., change in mouse ear weight: 25.90 mg and 22.32 mg and 24.10 mg and 26.59 mg and 20.08 mg and 23.10 mg and 26.91 mg and 20.56 mg
  % Inhibition of change in ear weight: 68%
